Usually IC50 stands for the midpoint of a concentration-inhibition curve. The low end stands for inhibition by little substance, the high end for a need for much substance.

Here are results for three compounds from patent US10231957B2, “Histone demethylase inhibitors” (CELGENE QUANTICEL RESEARCH, INC., priority 2014, dated 2019).

Structures are written as SMILES. Some results are limits rather than exact numbers.

For the test, the system named is KYSE-150 esophageal carcinoma cell line. The test is described as follows: In vitro cell-based assay: cellular proliferation via BrdU incorporation. Particulars: Homo sapiens; KYSE-150 cells, BrdU incorporation after 168 hr compound incubation. The method, then: Cell lines tested include the JMJD2C gene amplified cell line KYSE-150. This is a quantitative ELISA assay measuring DNA incorporation of BrdU during S-phase as a direct readout of cellular proliferation.
Assay Principle: This is a colorimetric immunoassay for the quantification of cell proliferation. Cells treated for 168 hours with test compounds are assayed for their ability to go through S-phase as a measure of their proliferative potential.
Assay Method: The human KYSE-150 (SMAD4 mut, TP53 mut) esophageal carcinoma cell line was seeded at 2,000 cells/well on a 96-well tissue culture treated plate. After an overnight incubation, cells were treated with compound in an […] dilution series with final concentrations ranging from 100 μM to 2 nM. Cells were then incubated in the presence of compound for 168 hr. After compound incubation the cells were assayed using a BrdU Cell Proliferation ELISA (Roche). The cells were first incubated with BrdU labeling reagent for 2 hr. After 2 hr, the BrdU incorporated cells were fixed and denatured, probed with an anti-BrdU-Peroxidase antibody for 1.5 hr and washed. Finally, a tetramethylbenzidine peroxidase substrate was added to each well for 15 min followed by a H2SO4 stop solution. The plate was read at 450 nm, and the raw optical density data was transferred into XLFit (IDBS) for IC50 calculation using the formula: fit=(D+((Vmax*(x^n))/((x^n)+(Km^n))))
(Dividing cells build labelled thymidine or BrdU into new DNA.)

As to `CN(c1ccccc1)c1ccc2c(-c3cc4nccc(C(=O)O)c4[nH]3)n(C)nc2c1` [Example 11, 2-{2-Methyl-6-[methyl(phenyl)amino]-2H-indazol-3-yl}-1-H-pyrrolo[3,2-b]pyridine-7-carboxylic Acid], the IC50 was not above 0.1 µM.

`COC(=O)c1ccnc2cc(-c3c4cc(Cl)ccc4nn3CCN3CCCC3)[nH]c12` [Example 10d, Methyl 2-{5-chloro-2-[2-(pyrrolidin-1-yl)ethyl]-2H-indazol-3-yl}-1H-pyrrolo[3,2-b]pyridine-7-carboxylate]: the IC50 was more than 10 µM.

`Cn1nc(-c2cc3nccc(C(=O)O)c3[nH]2)c2ccc(F)cc21` [Example 16, 2-(6-Fluoro-1-methyl-1H-indazol-3-yl)-1H-pyrrolo[3,2-b]pyridine-7-carboxylic Acid] yielded an IC50 of more than 10 µM.
